# Source: patent US12649008B2, “Peptide receptor radionuclide therapy” (The Regents of the University of California, priority 2020, dated 2026)
# How the values were obtained:
# [1] = tested on: integrin αvβ6(+) BxPC-3 cells; test: Cell binding, internalization and efflux; conditions: 37° C.
# [2] = In vitro serum stability, human serum; format: in vitro ADME; conditions: 37° C., read-out: stability in human serum (intact radiotracer)
# Procedure: Mouse or human serum (500 μl, both purchased from Millipore Sigma) was combined with an aliquot of the formulated radiotracer (100-200 μCi) and incubated at 37° C. Aliquots (100-200 μl) were drawn for analysis at 1 and 2 h post-incubation for the ^68Ga radiotracers and 1 and 24 h post-incubation for ^177Lu radiotracers, mixed with absolute ethanol (500 μl, 4° C.), and centrifuged (2300× g, 3 min) to precipitate out serum proteins. The supernatant was diluted with HPLC Solvent A and analyzed by radio-HPLC to determine the fraction of intact radiotracer as disclosed in Hausner et al., “In vitro and in vivo evaluation of the effects of aluminum [^18F]fluoride radiolabeling on an integrin αvβ6-specific peptide” Nuclear medicine and biology.
# αvβ6 (+) BxPC-3 tumors = test: In vivo targeted radionuclide therapy; design: species or system mice
# Procedure: Female nu/nu nude mice (6-8 weeks old) were purchased from Charles River Laboratories (Wilmington, MA, USA) and handled according to the UC Davis Institutional Animal Care and Use Committee. BxPC-3 cells (5×10^6) in 100 μl 1:1 GFR-Matrigel: serum-free RPMI were implanted subcutaneously into the left shoulder flank and allowed to grow for approximately 2 weeks (therapy study) and 3 weeks (0.5-1 cm in diameter, for imaging and biodistribution studies). All cells were evaluated with flow cytometry before injection to confirm integrin expression levels. Food and water were available ad libitum.
# For in vivo targeted radionuclide therapy, mice were implanted subcutaneously with BxPc-3 tumor cells 14 days before start of treatment. Mice were randomly chosen and divided into four treatment groups: Control Saline (Group 1, n=5); Control Peptide DOTA-ABM-5G (Group 2, n=6); 1×74 MBq [^177Lu]Lu DOTA-ABM-5G (Group 3, n=10); and 2×37 MBq [^177Lu]Lu DOTA-ABM-5G (Group 4, n=7). Average tumor volume at the start of the treatment was 14-218 mm^3. Group 2 received 20 μg of peptide DOTA-ABM-5G per mouse as a control. Group 3 received 74 MBq on day 14 post-tumor implant (treatment day 0), and Group 4 received two doses of 37 MBq on day 14 and 21 post-tumor implant (treatment days 0 and 7), at a specific activity of 18.5 MBq/nmol. Body weights and tumor volumes were measured the day before treatment, and twice a week post-treatment throughout the study. Tumor volume (TV) was determined according to the equation TV=(π/6)*L*W*H, where L is the longest axis, W is the axis perpendicular to L and H is perpendicular to the plane of L and W. End point determination was based on the longest axis of TV exceeding 2 cm, active ulceration, or compromised health of the mouse, including >20% loss of body weight from the start of the study. Survival curves are depicted as a Kaplan-Meier plot, using start of treatment as day 0.
compound,measurement,setting,value
CNC(=O)C(CCCCNC(=O)C(CC(=O)O)NC(=O)CCCNC(=O)CCCc1ccc(I)cc1)NC(=O)CN1CCN2CCN3CCN(CC1)CC(=O)[O][177Lu]([O]C(=O)C2)[O]C(=O)C3 (centres unmarked) [[^177Lu]Lu DOTA-ABM-5G],bound to BxPC-3 cells (of total radioactivity),[1]; 1 h,29±1.4%
same,internalized into BxPC-3 cells (of total radioactivity),[1]; 1 h,21.6±0.01%
same,efflux from BxPC-3 cells,[1]; at 1 hour post-internalization,5%
same,remaining at 24 h,[2],≥ 97%
same,median survival post-treatment,"αvβ6 (+) BxPC-3 tumors; Group 3, 1×74 MBq",82 days
same,median survival post-treatment,"αvβ6 (+) BxPC-3 tumors; Group 4, 2×37 MBq (days 0 and 7)",113 days
same,adverse events and weight loss during the study,"αvβ6 (+) BxPC-3 tumors; any group, 120 days",No adverse events and weight loss
same,adverse reaction to treatment in blood chemistry,"αvβ6 (+) BxPC-3 tumors; mouse, in vivo",no adverse reaction
